This passage reports nitrite/nitrate level results from patent US20160326098A1, “Pharmaceutically Active Compound for Use as Anti-inflammatory Agent” (Pax Forschung GmbH, priority 2013, published 2016).

The data set has as its system nitrite/nitrate (NOx). The data set is described as follows: Nitrite/nitrate level, colitis animals, comparison with GM-20 (FIG. 35). It is filed as in vivo, rats. The conditions noted are these: 1.11 mmol/kg body weight, vs sham control group P. On the procedure:
The levels of plasma nitrite/nitrate (NOx), stable end products of NO were measured by the Griess reaction. This assay depends on the reduction of nitrate to nitrite, which is then converted into a colored azo dye compound that is detected spectrophotometrically at 540 nm.
The above-described clinical studies were repeated with animals having colitis which was induced as described above. 20 animals (rats) were randomly divided into four groups, wherein group L served as sham-operated control, having no colitis, group M served as second control having colitis but receiving no further treatment, group N having colitis and being treated with 1.11 mmol/kg body weight of ASS and group O having colitis and being treated with 1.11 mmol/kg of the compound according to the invention. One day after the animals received the enema with TNBS (40 mg/kg i.c.), wherein the animals of group L only received the respective solvent, the animals of group N and O were treated with ASS and the compound according to the invention, respectively. The other animals only received the respective solvent again. Two days after the enema the effects of the treatment were determined by measurement of body weight, blood gas analysis and biopsy. […] Surgery was performed to allow registration of the hemodynamic parameters at 1 h intervals for 6 h (cardiac output [CO] data were measured only at the end of the experiments). […] In addition, fluorescence confocal endomicroscopy was performed to examine the microvasculature and morphologic changes of the mucosa of the distal colon, and full-thickness tissue samples and venous blood samples were taken to determine the biochemical changes in the colon and plasma.
The tests were conducted according to the above described protocol. […] Comparative compound GM-20 is described in the state of the art as being suitable for the therapeutic treatment pathologic disorders characterized by degranulation of the mast cells caused by immunogenic hyperstimulation (see U.S. Pat. No. 5,506,224) The nitrite/nitrate level was measured as described above.

For the molecule `CC(=O)Oc1ccccc1C(=O)NCCO` [GM-20], the nitrite/nitrate level result was “increased nitrite/nitrate level”.
